Consider one substance from patent publication US20030118651A1, “Bio-compatible means for controlled drug delivery to tissue and method of use” (priority 2001, published 2003).

This data set is classed as physicochemical. The conditions noted are these: pH 7.4. The procedure: The ORC-active agent combinations of example 2 and 3 can be suspended in neutral buffers at pH 7.4 at 37° C. to simulate body conditions for the purpose of studying the release of the drug in the buffer (in vitro). The test samples released Marcaine in the buffer while degrading. The ORC matrix is expected to degrade completely in 3-5 days if needed, degradation can be accelerated (terminal samples) by adding sodium bicarbonate base to the buffer solution. More particularly, for example, water bath is pre-heated to 37° C. Test samples of the ORC-Marcaine are cut into small pieces and the samples (in the range of 0.05g-01 g) are weighed and placed in labeled vials. The desired amount of buffer (e.g., 100, 50, 25 or 10 times, by weight, of the test sample) is added. For terminal samples, sufficient sodium bicarbonate is added to make a 0.15 M solution. The vials are placed in the pre-heated water bath for the desired period of time (approximately 10 min-120 hours).

As to “oxidized regenerated cellulose [ORC matrix]”, the “time to complete degradation” value fell in the range of 3 to 5 days.
